Data on 15 compounds can be found in patent publication US10703756B2, “Pyrrolo[2,3-D]pyrimidinyl, pyrrolo[2,3-B]pyrazinyl, pyrrolo[2,3-B]pyridinyl acrylamides and epoxides thereof” (Pfizer Inc., priority 2015, dated 2020).

In assay [1] the test system is IL-15 induced P-STAT5 in human PBMC. Briefly: PBMC IL-15 Induced P-STAT5. It is filed as cell-based. The note with it: human PBMC, IL-15 final 41 ng/mL; read-out: PBMC IL15_pSTAT5_IC50. How it is done: PBMC IL-15 Induced P-STAT5
Test compounds were serially diluted in DMSO, with further dilution of the compounds in RPMI 1640 medium (Invitrogen #72400) supplemented with 10 mM HEPES, pH 7.4, 1 mM sodium pyruvate, and Penicillin/Streptomycin (by adding 5 μL compound/DMSO in 120 μL Dulbecco's Phosphate-Buffered Saline (D-PBS, 1×), [DMSO]=4%, and mixing the solution by repeated pipetting, 6×). IL-15 was diluted to the concentration at 820 ng/mL in RPMI 1640 medium.
Frozen human PBMC (200-250 million cells/vial) was thawed at 37° C. The cells were transferred to 10 mL warm medium in a 50-mL conical tube, and centrifuged at 1,200 RPM at room temperature for 5 min. The supernatant was aspirated. Cells were suspended in 3 mL warm human plasma and incubated at 37° C. in a tissue culture incubator for 1.5 to 2 h. After adding 47 ml D-PBS (37° C.) to PBMC/FBS suspension, centrifuging at 1,200 RPM at room temperature for 5 min, and aspirating the supernatant, the cells were resuspended in 20 mL warm RPMI medium. Ninety μL of cell suspension were pipetted per well in a 96-well, deep-well, V-bottom plate, and the plate was incubated at 37° C. for 30 min. Five μL of compound were transferred to each well (final 0.2% DMSO), vortex gently and incubate at 37° C. for 15 min; 5 μL 4% DMSO/PBS were added to the control wells. After adding 5 μL 820 ng/mL of human IL-15 (final 41 ng/mL) to each well (5 μL PBS to the control wells), vortexing gently and incubating at 37° C. for 15 min, followed by 0.3 mL 1% paraformaldehyde/PBS (37° C.) to each well, and incubating the plate at room temperature for 15 min, the plates were centrifuged at 1,200 RPM (Beckman GS-6R or Sorvall Legend) at room temperature for 5 min, and the supernatant was aspirated using a 8-channel or 12-channel manifold. After adding 0.8 mL staining buffer per well, the plates were centrifuged at 1,200 RPM (Beckman GS-6R or Sorvall Legend) at room temperature for 5 min, and again the supernatant was aspirated using a 8-channel or 12-channel manifold. The plate was vortexed, and 0.35 mL 90% methanol/10% H2O (−20° C.) was added per well, and the plate incubated on ice for 20 min. After again adding 0.8 mL staining buffer per well, the plates were centrifuged at 1,200 RPM (Beckman GS-6R or Sorvall Legend) at room temperature for 5 min, and again the supernatant was aspirated using a 8-channel or 12-channel manifold, and then 0.8 mL Staining buffer was added per well. After once again adding 0.8 mL staining buffer per well, the plates were centrifuged at 1,200 RPM (Beckman GS-6R or Sorvall Legend) at room temperature for 5 min, and again the supernatant was aspirated using a 8-channel or 12-channel manifold. Then the plate was vortexed, and 250 μL/well of Alexa Fluor® 647 conjugated anti-STAT5 antibody ([…]; […]) was added, and the plate was incubated at 4° C. overnight in the dark. Samples of 250 μL/well were transferred to a 96-well U-bottom plate, and the FACS analysis was performed gating on total lymphocytes. Samples were analyzed using a BD Calibur™ or BD FACSCanto™ flow cytometer equipped with the BD High Throughput Sampler.

The target in assay [2] is T1, JAK3 enzyme (Homo sapiens, UniProt P52333).
T1 sequence (P52333 1-1124): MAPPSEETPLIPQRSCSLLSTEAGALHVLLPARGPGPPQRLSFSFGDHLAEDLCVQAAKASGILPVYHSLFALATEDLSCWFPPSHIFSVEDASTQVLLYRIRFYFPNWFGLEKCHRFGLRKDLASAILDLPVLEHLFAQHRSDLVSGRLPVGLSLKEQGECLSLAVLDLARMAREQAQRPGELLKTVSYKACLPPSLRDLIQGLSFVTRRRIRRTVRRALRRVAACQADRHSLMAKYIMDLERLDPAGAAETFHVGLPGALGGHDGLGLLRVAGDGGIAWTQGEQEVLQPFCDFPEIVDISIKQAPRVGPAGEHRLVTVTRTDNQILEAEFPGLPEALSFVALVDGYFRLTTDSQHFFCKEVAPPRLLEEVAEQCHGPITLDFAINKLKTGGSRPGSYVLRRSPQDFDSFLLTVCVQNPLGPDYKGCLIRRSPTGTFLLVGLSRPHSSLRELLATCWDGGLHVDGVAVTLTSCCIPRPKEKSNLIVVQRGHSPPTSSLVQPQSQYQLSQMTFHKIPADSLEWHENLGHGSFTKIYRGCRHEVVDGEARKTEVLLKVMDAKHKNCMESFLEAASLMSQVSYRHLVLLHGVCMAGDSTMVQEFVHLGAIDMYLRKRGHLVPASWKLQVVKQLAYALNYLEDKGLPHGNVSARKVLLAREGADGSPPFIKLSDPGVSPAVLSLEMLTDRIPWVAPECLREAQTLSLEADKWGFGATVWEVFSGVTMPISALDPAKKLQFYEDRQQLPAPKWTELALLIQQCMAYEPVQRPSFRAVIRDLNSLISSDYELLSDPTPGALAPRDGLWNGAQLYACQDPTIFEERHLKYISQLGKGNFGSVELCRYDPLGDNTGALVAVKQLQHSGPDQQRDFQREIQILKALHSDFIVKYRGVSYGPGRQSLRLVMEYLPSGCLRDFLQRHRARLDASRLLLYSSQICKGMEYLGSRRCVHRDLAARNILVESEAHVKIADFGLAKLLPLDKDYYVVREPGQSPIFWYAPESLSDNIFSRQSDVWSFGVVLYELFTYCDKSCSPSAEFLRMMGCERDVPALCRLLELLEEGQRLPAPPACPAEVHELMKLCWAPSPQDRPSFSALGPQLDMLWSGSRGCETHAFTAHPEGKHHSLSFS
Description: JAK Caliper Enzyme Assay at 1 mM ATP. It is filed as biochemical. The procedure, abridged:
(§1)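 11-pt ½-log cpd titration in DMSO (top 600 μM, pre-assay); enzyme conc/incubation adjusted per prep → 20-30% peptide phosphorylation; phospho vs non-phospho peptide read by chip-based electrophoretic separation.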

For assay [3], the target named is T1, JAK3 enzyme. Briefly: JAK Caliper Enzyme Assay at 4 μM ATP. The class given is biochemical. The procedure, abridged: as §1

As to `C=CC(=O)N1CCC(C)(Nc2cnc3[nH]cc(C(=O)NCC)c3n2)CC1` [Example 281, 2-[(1-acryloyl-4-methylpiperidin-4-yl)amino]-N-ethyl-5H-pyrrolo[2,3-b]pyrazine-7-carboxamide], the IC50 in assay [1] worked out at 1220 nM; against JAK3 enzyme [2] it was 73 nM; on JAK3 enzyme [3] it was 1.02 nM.
Regarding `C=CC(=O)N1CCN(c2cnc3[nH]cc(C(=O)NCC)c3n2)CC1(C)C` [Example 307, 2-(4-acryloyl-3,3-dimethylpiperazin-1-yl)-N-ethyl-5H-pyrrolo[2,3-b]pyrazine-7-carboxamide], the IC50 was determined as 2130 nM in assay [1], 1080 nM against JAK3 enzyme [2] and 9.82 nM on JAK3 enzyme [3].
For `C=CC(=O)N1CC[C@H](Nc2cnc3[nH]cc(C(=O)N[C@@H]4C[C@H]4C(F)(F)F)c3n2)[C@H](OC)C1` [Example 271, 2-{[(3R,4S)-1-acryloyl-3-methoxypiperidin-4-yl]amino}-N-[(1R,2R)-2-(trifluoromethyl)cyclopropyl]-5H-pyrrolo[2,3-b]pyrazine-7-carboxamide] the same measures were 1140 nM, 144 nM and 0.676 nM.
`C=CC(=O)N1CCN(c2cnc3[nH]cc(C(=O)NCCOC)c3n2)CC1(C)C` [Example 265, 2-(4-acryloyl-3,3-dimethylpiperazin-1-yl)-N-(2-methoxyethyl)-5H-pyrrolo[2,3-b]pyrazine-7-carboxamide]: the IC50 in assay [1] is 2060 nM; against JAK3 enzyme [2] it was 742 nM; against JAK3 enzyme [3], 4.63 nM.
`C=CC(=O)N1CCC(Nc2cnc3[nH]cc(C(=O)NCc4nc(C)cc(C(F)(F)F)n4)c3n2)CC1` [Example 171, 2-[(1-acryloylpiperidin-4-yl)amino]-N-{[4-methyl-6-(trifluoromethyl)pyrimidin-2-yl]methyl}-5H-pyrrolo[2,3-b]pyrazine-7-carboxamide]: the figures for the IC50 (in assay [1]; on JAK3 enzyme [2]; on JAK3 enzyme [3]) were 947 nM, 55 nM and 0.928 nM, respectively.
For the compound `C=CC(=O)N1CC[C@@H](Nc2cnc3[nH]cc(C(=O)NC[C@H](C)CC(F)(F)F)c3n2)[C@@H](OC)C1` [Example 323, 2-{[(3S,4R)-1-acryloyl-3-methoxypiperidin-4-yl]amino}-N-[(2R)-4,4,4-trifluoro-2-methylbutyl]-5H-pyrrolo[2,3-b]pyrazine-7-carboxamide], the IC50 in assay [1] was found to be 430 nM; on JAK3 enzyme [2] it was 69 nM; on JAK3 enzyme [3] it was 0.392 nM.
Regarding `C=CC(=O)N1CCC(Nc2cnc3[nH]cc(C(=O)NCCCC(F)(F)F)c3n2)CC1C` (racemic) [Example 282, Racemic-2-[(1-acryloyl-2-methylpiperidin-4-yl)amino]-N-(4,4,4-trifluorobulyl)-5H-pyrrolo[2,3-b]pyrazine-7-carboxamide], the values for the IC50 (in assay [1]; against JAK3 enzyme [2]; against JAK3 enzyme [3]) were 3090 nM, 359 nM and 2.45 nM, respectively.
Consider `C=CC(=O)N(C)C1CN(c2cnc3[nH]cc(C(=O)NCC)c3n2)C1` [Example 59, 2-{3-[acryloyl(methyl)amino]azetidin-1-yl}-N-ethyl-5H-pyrrolo[2,3-b]pyrazine-7-carboxamide], for which the IC50 in assay [1] amounted to 4870 nM; against JAK3 enzyme [2], 1200 nM; against JAK3 enzyme [3] it was 6.26 nM.
`C=CC(=O)N1C[C@H](CC#N)C[C@H](Nc2ncnc3[nH]ccc23)C1` (single isomer, unassigned) [Example 107]: the IC50 stood at 8260 nM in assay [1], 1240 nM against JAK3 enzyme [2] and 11.8 nM against JAK3 enzyme [3].
As for `C=CC(=O)N1CC[C@H](Nc2cnc3[nH]cc(C(=O)NCC)c3n2)C[C@@H]1C` (racemic) [Example 349, 2-(((2S,4S)-1-acryloyl-2-methylpiperidin-4-yl)amino)-N-ethyl-5H-pyrrolo[2,3-b]pyrazine-7-carboxamide], the IC50 in assay [1] came to 2930 nM; at JAK3 enzyme [2], 367 nM; at JAK3 enzyme [3], 2.12 nM.
With `C=CC(=O)N1CCC(Oc2cnc3[nH]cc(C(=O)N[C@H]4CC[C@H](F)C4)c3n2)CC1` [Example 210, 2-[(1-acryloylpiperidin-4-yl)oxy]-N-[(1S,3S)-3-fluorocyclopentyl]-5H-pyrrolo[2,3-b]pyrazine-7-carboxamide], the IC50 in assay [1] was determined as 325 nM; against JAK3 enzyme [2], 54 nM; against JAK3 enzyme [3] it was 0.435 nM.
For `C=CC(=O)N1CCN(c2cnc3[nH]cc(C(=O)NCC4(O)CCC(F)(F)CC4)c3n2)C[C@@H]1CC(C)C` [Example 302, 2-[(3S)-4-acryloyl-3-(2-methylpropyl)piperazin-1-yl]-N-[(4,4-difluoro-1-hydroxycyclohexyl)methyl]-5H-pyrrolo[2,3-b]pyrazine-7-carboxamide], the figures for the IC50 (in assay [1]; at JAK3 enzyme [2]; at JAK3 enzyme [3]) were 1190 nM, 385 nM and 2.89 nM, respectively.
On to `C=CC(=O)N1CCN(c2cnc3[nH]cc(C(=O)NC4CC(F)(F)C4)c3n2)C[C@@H]1CC(C)C` [Example 273, 2-[(3S)-4-acryloyl-3-(2-methylpropyl)piperazin-1-yl]-N-(3,3-difluorocyclobutyl)-5H-pyrrolo[2,3-b]pyrazine-7-carboxamide], for which the IC50 turned out to be 389 nM in assay [1], 204 nM against JAK3 enzyme [2] and 1.59 nM against JAK3 enzyme [3].
`C=CC(=O)N1CCC(Oc2cnc3[nH]cc(C(=O)NCC4CC(F)(F)C4)c3n2)CC1` [Example 197, 2-[(1-acryloylpiperidin-4-yl)oxy]-N-[(3,3-difluorocyclobutyl)methyl]-5H-pyrrolo[2,3-b]pyrazine-7-carboxamide]: the IC50 in assay [1] was found to be 706 nM; at JAK3 enzyme [2] it was 147 nM; against JAK3 enzyme [3], 0.788 nM.
As for `C=CC(=O)N1CCC(C)(Nc2cnc3[nH]cc(C(=O)NCC4CC(F)(F)C4)c3n2)CC1` [Example 306, 2-[(1-acryloyl-4-methylpiperidin-4-yl)amino]-N-[(3,3-difluorocyclobutyl)methyl]-5H-pyrrolo[2,3-b]pyrazine-7-carboxamide], the IC50 stood at 1570 nM in assay [1], 107 nM at JAK3 enzyme [2] and 0.705 nM against JAK3 enzyme [3].
